Test system: CCO cells
Assay: Compounds cytotoxicity assay (CCK-8 cell viability)
Format: cell-based
Conditions: channel catfish, 72 h
Protocol: The cytotoxicity effects of the selected compounds were detected in CCO cells by the cell viability assay. In brief, the CCO cells were seeded in 96-well plates and cultured to reach approximately 90% confluence in each well at 28°C. Subsequently, the monolayer cells were exposed to a maintenance medium with the tested compounds at different concentrations or DMSO for 72 h. Cell Counting Kit-8 (Beyotime, China) was used to measure the cell viability according to the manufacturer’s protocol after 72 h incubation. The optical density at 450 nm was measured using a Spark microplate reader (TECAN, Switzerland). Then, the maximum safe concentration (≥ 90% cell survived, SC90) of compounds to CCO cells was calculated according to the cell viability.
All data were analyzed with GraphPad Prism 8.0. Viral titers were log10 transformed prior to statistical analyses. The SC90 values were calculated using probit analysis. The data are expressed as the arithmetic mean ± standard deviation (SD) and were analyzed by one-way ANOVA with multiple comparisons test. Statistical significance was defined as *p < 0.05, **p < 0.01.
Figure 1 Cytotoxicity assay. The CCO cells were treated with 12 tested compounds with different concentrations in a 96-well plate for 72 h, and then the cell viability was measured by CCK-8. (A) Kaempferol, (B) Tannic acid, (C) P-Coumaric acid, (D) Magnolol, (E) Baicalein, (F) Genistein, (G) Mangiferin, (H) Rosmarinic acid, (I) Artemisinin, (J) Myricetin, (K) Ginkgolic acid, (L) Shikonin. Data represent mean ± SD normalized to values for DMSO treated group. The SC90 was analyzed and calculated using probit analysis. TEXT PRINTED IN THE PICTURE: (A) Kaempferol: SC90 = 47.53 μg/ml | (B) Tannic acid: SC90 = 90.02 μg/ml | (C) P-Coumaric acid: SC90 ≥500 μg/ml | (D) Magnolol: SC90 = 10.02 μg/ml | (E) Baicalein: SC90 = 29.73 μg/ml | (F) Genistein: SC90 = 13.66 μg/ml | (G) Mangiferin: SC90 ≥500 μg/ml | (H) Rosmarinic acid: SC90 = 46.37 μg/ml | (I) Artemisinin: SC90 ≥500 μg/ml | (J) Myricetin: SC90 = 346.19 μg/ml | (K) Ginkgolic acid: SC90 = 10.89 μg/ml | (L) Shikonin: SC90 = 54.44 μg/ml DOUBTS OF THE COPYIST ABOUT THIS PICTURE: All SC90 values are in small print, so 3, 5, 6, 8 and 9 are hard to tell apart / Kaempferol, SC90: 47.53 (5 or 3 uncertain) / Tannic acid, SC90: 90.02 (9 or 8 uncertain) / Baicalein, SC90: 29.73 (9 or 3 uncertain) / Genistein, SC90: 13.66 (3 and 6 uncertain) / Rosmarinic acid, SC90: 46.37 (6 and 3 uncertain) / Myricetin, SC90: 346.19 (3, 6 and 9 uncertain) / Ginkgolic acid, SC90: 10.89 (8 and 9 uncertain) / Shikonin, SC90: 54.44 (5 uncertain) / P-Coumaric acid, Mangiferin, Artemisinin, SC90: sign ≥ or >; 500 (5 uncertain)

Row | SMILES | SC90 (maximum safe concentration, ≥ 90% cell survived)
1 | O=c1cc(-c2ccccc2)oc2cc(O)c(O)c(O)c12 [Baicalein] | 29.73 µg/mL
2 | C[C@@H]1CC[C@H]2[C@@H](C)C(=O)O[C@@H]3O[C@@]4(C)CC[C@@H]1[C@]32OO4 [Artemisinin, reference compound] | ≥ 500 µg/mL
3 | O=c1c(O)c(-c2cc(O)c(O)c(O)c2)oc2cc(O)cc(O)c12 [Myricetin] | 346.19 µg/mL

Source: paper PMC10725991, “Kaempferol is a novel antiviral agent against channel catfish virus infection through blocking viral attachment and penetration in vitro” (Frontiers in Veterinary Science, 2023)
